Test results taken from patent US11959083B2, “Immunosuppression-reverting oligonucleotides inhibiting the expression of CD39” (Secarna Pharmaceuticals GmbH & Co. KG, priority 2016, dated 2024).
l = locked nucleic acid (LNA); d = 2'-deoxy (DNA)

Tests used:
Type in all cases: cell-based, human
hCD39 mRNA [1] = assay: hCD39 mRNA knockdown efficacy screen in HDLM-2 cells (single dose, gymnotic delivery, QuantiGene Singleplex); settings: 10 μM, 3 days; for Mean hCD39 mRNA expression normalized to HPRT1 relative to untreated control = 1: first screening round; for Relative hCD39 mRNA expression (compared to non-treated cells): second screening round, normalized to HPRT1; for Residual hCD39 mRNA expression relative to untreated cells (set as 1): third screening round
How it was run: (§1)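 Antisense oligonucleotides given once at 10 μM without transfection reagent (gymnotic) to HDLM-2 or A-172 cells for 3 days. hCD39 mRNA measured by QuantiGene Singleplex, normalized to HPRT1 and expressed relative to untreated cells; triplicate means.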

hCD39 mRNA [2] = assay: hCD39 mRNA knockdown efficacy screen in A-172 cells (single dose, gymnotic delivery, QuantiGene Singleplex); settings: 10 μM, 3 days; for Mean hCD39 mRNA expression (relative to untreated cells set as 1): first screening round; for Mean hCD39 mRNA expression (relative to untreated cells set as 1) / Relative hCD39 mRNA expression (compared to non-treated cells): normalized to HPRT1; for Relative hCD39 mRNA expression (compared to non-treated cells): second screening round; for Residual hCD39 mRNA expression relative to untreated cells (set as 1): third screening round
How it was run: as §1

hCD39 mRNA [3] = assay: IC50 determination / concentration-dependent hCD39 mRNA knockdown in HDLM-2 cells; settings: for mRNA inhibition: HDLM-2, 3 days; for IC50: HDLM-2 cells, hCD39 mRNA, 3 days
Protocol: HDLM-2 cells were treated for 3 days with the indicated concentration of the respective antisense oligonucleotide. Residual hCD39 expression is depicted compared to untreated control cells. hCD39 mRNA expression values were normalized to expression of the housekeeping gene HPRT1.
The antisense oligonucleotide A04040H (SEQ ID No. 3) that had shown potent activity in the first and second screening round was used as reference. HDLM-2 cells treated for 3 days with the indicated concentrations of the respective antisense oligonucleotide. hCD39 mRNA expression values were normalized to expression of the housekeeping gene HPRT1. Residual hCD39 mRNA expression relative to untreated cells (set as 100) is depicted. Depicted is the mean of triplicate wells+/−SD.
In a second experiment the concentration-dependency of effects and the IC50 values of hCD39 antisense oligonucleotides A04010H (SEQ ID No.14), A04016H (SEQ ID No.20), A04017H (SEQ ID No.21), A04020H (SEQ ID No. 24) and A04026H (SEQ ID No.30) were tested. […] HDLM-2 cells were treated with titrated amounts of the respective antisense oligonucleotide (concentrations: 10 μM, 3.3 μM, 1.1 μM, 370 nM, 120 nM, 41 nM, 14 nM, 4.5 nM). hCD39 mRNA expression was analyzed after three days of treatment. FIG. 5 and Table 9 depicts the concentration-dependent reduction of hCD39 mRNA expression by the selected hCD39 antisense oligonucleotides.
The hCD39 antisense oligonucleotides A04051H (SEQ ID No.88), A04052H (SEQ ID No.89), A04053H ([…]), A04056H (SEQ ID No.92), A04059H (SEQ ID No.94), A04060H (SEQ ID No.95), and A04061H (SEQ ID No.96) had shown potent single-dose activity in both HDLM-2 and A-172 cells. […] The antisense oligonucleotide A04040H that had shown potent activity in the first screening round was used as reference. hCD39 mRNA expression was analyzed after 3 days of treatment. FIG. 7 depicts the concentration-dependent reduction of hCD39 expression by hCD39 antisense oligonucleotides.

[4] = second screening round (Table 9)
[5] = third screening round (Table 12)

Substance | Mean hCD39 mRNA expression normalized to HPRT1 relative to untreated control = 1 (hCD39 mRNA [1]) | Relative hCD39 mRNA expression (compared to non-treated cells) (hCD39 mRNA [1]) | Mean hCD39 mRNA expression (relative to untreated cells set as 1) (hCD39 mRNA [2]) | Relative hCD39 mRNA expression (compared to non-treated cells) (hCD39 mRNA [2]) | mRNA inhibition (hCD39 mRNA [3]; 0.0045 μM, Table 9) [%] | mRNA inhibition (hCD39 mRNA [3]; 0.013 μM, Table 9) [%] | mRNA inhibition (hCD39 mRNA [3]; 0.04 μM, Table 9) [%] | mRNA inhibition (hCD39 mRNA [3]; 0.12 μM, Table 9) [%] | mRNA inhibition (hCD39 mRNA [3]; 0.4 μM, Table 9) [%] | mRNA inhibition (hCD39 mRNA [3]; 1.1 μM, Table 9) [%] | mRNA inhibition (hCD39 mRNA [3]; 3.3 μM, Table 9) [%] | mRNA inhibition (hCD39 mRNA [3]; 10 μM, Table 9) [%] | IC50 (hCD39 mRNA [3]; [4]) [nM] | Residual hCD39 mRNA expression relative to untreated cells (set as 1) (hCD39 mRNA [1]) | Residual hCD39 mRNA expression relative to untreated cells (set as 1) (hCD39 mRNA [2]) | mRNA inhibition (hCD39 mRNA [3]; 4 nM, Table 12) [%] | mRNA inhibition (hCD39 mRNA [3]; 12 nM, Table 12) [%] | mRNA inhibition (hCD39 mRNA [3]; 40 nM, Table 12) [%] | mRNA inhibition (hCD39 mRNA [3]; 110 nM, Table 12) [%] | mRNA inhibition (hCD39 mRNA [3]; 330 nM, Table 12) [%] | further results
+C*+T*+T*G*A*A*C*A*C*T*G*C*+G*+A*+T (antisense CTTGAACACTGCGAT; sugars from the 5' end l3 d9 l3, all phosphorothioate, methylation of C not given here) [A04017H] | 0.11 | 0.11 | 0.11 | 0.11 | 33.85 | 49.62 | 62.92 | 79.03 | 91.63 | 97.05 | 98.95 | 99.37 | 33.1 | – | – | – | – | – | – | – | –
+G*+A*+T*A*G*T*T*T*C*C*A*A*T*+A*+C*+C (antisense GATAGTTTCCAATACC; sugars from the 5' end l3 d10 l3, all phosphorothioate, methylation of C not given here) [A04026H] | 0.03 | 0.03 | 0.07 | 0.08 | 29.98 | 29.02 | 54.32 | 77.36 | 92.99 | 96.69 | 99.20 | 98.59 | 61.5 | – | – | – | – | – | – | – | –
+G*+A*G*T*G*C*C*T*G*A*T*C*C*+T*+T (antisense GAGTGCCTGATCCTT; sugars from the 5' end l2 d11 l2, all phosphorothioate, methylation of C not given here) [A04010H] | 0.17 | 0.15 | 0.10 | 0.11 | 20.11 | 24.68 | 52.80 | 76.16 | 90.86 | 95.99 | 98.10 | 98.77 | 51.6 | – | – | – | – | – | – | – | –
+G*+G*+T*T*T*G*T*G*T*G*A*G*A*G*C*+T (antisense GGTTTGTGTGAGAGCT; sugars from the 5' end l3 d12 l1, all phosphorothioate, methylation of C not given here) [A04060H] | – | – | – | – | – | – | – | – | – | – | – | – | – | 0.01 | 0.08 | 0.00 | 0.00 | 49.14 | 88.34 | 96.71 | mRNA inhibition (hCD39 mRNA [3]; 0.45 nM, Table 12): 0.00%; mRNA inhibition (hCD39 mRNA [3]; 1.3 nM, Table 12): 0.00%; mRNA inhibition (hCD39 mRNA [3]; 1000 nM, Table 12): 97.82%; IC50 (hCD39 mRNA [3]; [5]): 20.5 nM
+G*+G*+T*T*T*G*T*G*T*G*A*G*A*G*C*+T*+T (antisense GGTTTGTGTGAGAGCTT; sugars from the 5' end l3 d12 l2, all phosphorothioate, methylation of C not given here) [A04059H] | – | – | – | – | – | – | – | – | – | – | – | – | – | 0.01 | 0.09 | 0.00 | 12.94 | 72.06 | 91.84 | 97.46 | mRNA inhibition (hCD39 mRNA [3]; 0.45 nM, Table 12): 1.21%; mRNA inhibition (hCD39 mRNA [3]; 1.3 nM, Table 12): 0.00%; mRNA inhibition (hCD39 mRNA [3]; 1000 nM, Table 12): 98.31%; IC50 (hCD39 mRNA [3]; [5]): 18.3 nM
+G*+T*+A*A*G*C*C*C*T*G*A*T*+G*+T*+T (antisense GTAAGCCCTGATGTT; sugars from the 5' end l3 d9 l3, all phosphorothioate, methylation of C not given here) [A04019H] | 0.08 | 0.08 | 0.03 | 0.03 | 22.53 | 49.52 | 62.95 | 82.63 | 93.96 | 97.94 | 99.04 | 99.00 | 11.6 | 0.01 | 0.00 | – | – | – | – | – | mRNA inhibition (hCD39 mRNA [3]; 0.0045 μM, Table 8): −11.65%; mRNA inhibition (hCD39 mRNA [3]; 0.013 μM, Table 8): 8.19%; mRNA inhibition (hCD39 mRNA [3]; 0.04 μM, Table 8): 38.76%; mRNA inhibition (hCD39 mRNA [3]; 0.12 μM, Table 8): 69.42%; mRNA inhibition (hCD39 mRNA [3]; 0.4 μM, Table 8): 88.83%; mRNA inhibition (hCD39 mRNA [3]; 1.1 μM, Table 8): 95.46%; mRNA inhibition (hCD39 mRNA [3]; 3.3 μM, Table 8): 97.89%; mRNA inhibition (hCD39 mRNA [3]; 10 μM, Table 8): 98.39%; IC50 (hCD39 mRNA [3]; first screening round (Table 8)): 40 nM
+G*+T*+T*T*G*T*G*T*G*A*G*A*G*C*+T (antisense GTTTGTGTGAGAGCT; sugars from the 5' end l3 d11 l1, all phosphorothioate, methylation of C not given here) [A04061H] | – | – | – | – | – | – | – | – | – | – | – | – | – | 0.01 | 0.10 | 0.00 | 0.00 | 19.90 | 69.28 | 92.28 | mRNA inhibition (hCD39 mRNA [3]; 1000 nM, Table 12): 97.43%; IC50 (hCD39 mRNA [3]; [5]): 66.8 nM
+G*+T*+T*T*G*T*G*T*G*A*G*A*G*C*+T*+T*+T (antisense GTTTGTGTGAGAGCTTT; sugars from the 5' end l3 d11 l3, all phosphorothioate, methylation of C not given here) [A04056H] | – | – | – | – | – | – | – | – | – | – | – | – | – | 0.01 | 0.09 | 13.97 | 37.12 | 69.95 | 91.83 | 97.52 | mRNA inhibition (hCD39 mRNA [3]; 1000 nM, Table 12): 98.49%; IC50 (hCD39 mRNA [3]; [5]): 20.2 nM
+G*G*+A*C*A*A*T*G*G*T*T*G*+C*+T*+C (antisense GGACAATGGTTGCTC; sugars from the 5' end l1 d1 l1 d9 l3, all phosphorothioate, methylation of C not given here) [A04016H] | 0.10 | 0.10 | 0.09 | 0.09 | 18.41 | 42.19 | 62.31 | 77.61 | 90.51 | 96.67 | 98.38 | 98.94 | 12.8 | – | – | – | – | – | – | – | –
